Where “and” joins values, the source holds several entries; their conditions need not be identical. Identical values can stand only once.
Conditions: 283.15 K, Liquid, Vibrating tube method

CCCCCC(=O)OCC(COC(=O)CCCCC)(COC(=O)CCCCC)COC(=O)CCCCC [pentaerythritol tetrahexanoate]
Conditions | mass density
6771 kPa | 1008.1 kg/m3
6771.2 kPa | 1008 kg/m3
6771.4 kPa | 1008.1 kg/m3 and 1008 kg/m3
6771.6 kPa | 1008.1 kg/m3
6771.7 kPa | 1008.1 kg/m3
6771.9 kPa | 1008 kg/m3
6772.1 kPa | 1008.1 kg/m3
6772.3 kPa | 1008.1 kg/m3
6772.4 kPa | 1008 kg/m3 and 1008.1 kg/m3 and 1008.2 kg/m3
6772.6 kPa | 1008.1 kg/m3 and 1008 kg/m3
6772.8 kPa | 1008.1 kg/m3 and 1007.9 kg/m3
6772.9 kPa | 1008.1 kg/m3
6773.1 kPa | 1008 kg/m3 and 1008.2 kg/m3
6773.3 kPa | 1008 kg/m3 and 1008.2 kg/m3
6773.5 kPa | 1008 kg/m3 and 1008.1 kg/m3
6773.6 kPa | 1008.1 kg/m3 and 1008.2 kg/m3 and 1008 kg/m3
6773.7 kPa | 1008 kg/m3
6773.8 kPa | 1008.1 kg/m3 and 1008 kg/m3
6774.1 kPa | 1008.1 kg/m3
6774.2 kPa | 1008.1 kg/m3
6774.3 kPa | 1008.1 kg/m3
6774.5 kPa | 1008.2 kg/m3 and 1008 kg/m3 and 1008.1 kg/m3
6774.7 kPa | 1008.1 kg/m3 and 1008.2 kg/m3 and 1008 kg/m3
6774.8 kPa | 1007.9 kg/m3 and 1008.1 kg/m3 and 1008 kg/m3
6775 kPa | 1008.1 kg/m3 and 1007.9 kg/m3
6775.1 kPa | 1008.2 kg/m3 and 1008.1 kg/m3
6775.2 kPa | 1008.1 kg/m3 and 1008.2 kg/m3
6775.4 kPa | 1008.2 kg/m3 and 1008 kg/m3
6776.1 kPa | 1008.1 kg/m3
6776.2 kPa | 1008.1 kg/m3
6776.6 kPa | 1008.2 kg/m3 and 1008.1 kg/m3
6776.8 kPa | 1008.1 kg/m3 and 1008.2 kg/m3 and 1008 kg/m3
6776.9 kPa | 1008.2 kg/m3 and 1008.1 kg/m3
6777.1 kPa | 1008.1 kg/m3
6777.3 kPa | 1008.1 kg/m3
6777.5 kPa | 1008.1 kg/m3 and 1008 kg/m3
6777.6 kPa | 1008.1 kg/m3 and 1008 kg/m3
6777.8 kPa | 1008.1 kg/m3 and 1008.2 kg/m3 and 1008 kg/m3
6778 kPa | 1008.2 kg/m3
6778.1 kPa | 1008 kg/m3 and 1008.1 kg/m3 and 1008.2 kg/m3
6778.3 kPa | 1008.1 kg/m3 and 1008.2 kg/m3
6778.5 kPa | 1008.1 kg/m3 and 1008 kg/m3 and 1007.9 kg/m3
6778.7 kPa | 1008 kg/m3 and 1008.1 kg/m3
6779 kPa | 1008.1 kg/m3
6779.2 kPa | 1008 kg/m3 and 1008.1 kg/m3
6779.3 kPa | 1008.2 kg/m3
6779.5 kPa | 1008 kg/m3 and 1008.1 kg/m3
6779.7 kPa | 1008.1 kg/m3 and 1008.2 kg/m3
6779.8 kPa | 1008.2 kg/m3
6779.9 kPa | 1008 kg/m3 and 1008.1 kg/m3
6780 kPa | 1008.1 kg/m3 [middle of 4 runs]
6780.2 kPa | 1008.1 kg/m3 and 1008 kg/m3
6780.3 kPa | 1008 kg/m3
6780.4 kPa | 1008 kg/m3 and 1008.2 kg/m3 and 1008.1 kg/m3
6780.5 kPa | 1008.1 kg/m3 and 1008 kg/m3
6780.6 kPa | 1008.1 kg/m3
6780.7 kPa | 1008 kg/m3 and 1008.2 kg/m3 and 1008.1 kg/m3
6780.8 kPa | 1008.2 kg/m3 and 1008.1 kg/m3
6780.9 kPa | 1008.1 kg/m3
6781 kPa | 1008.1 kg/m3 and 1008 kg/m3 and 1008.2 kg/m3
6781.1 kPa | 1008.1 kg/m3
6781.2 kPa | 1008.1 kg/m3
6781.3 kPa | 1008.1 kg/m3
6781.4 kPa | 1008.1 kg/m3
6781.5 kPa | 1008.1 kg/m3
6781.7 kPa | 1007.9 kg/m3
6781.9 kPa | 1008.1 kg/m3 and 1008 kg/m3
6782 kPa | 1008.2 kg/m3
6782.2 kPa | 1008.2 kg/m3 and 1008.1 kg/m3 and 1008 kg/m3
6782.4 kPa | 1007.9 kg/m3 and 1008.2 kg/m3 and 1008.1 kg/m3
6782.6 kPa | 1008.1 kg/m3 and 1008 kg/m3
6782.7 kPa | 1008.2 kg/m3 and 1008.1 kg/m3 and 1008 kg/m3
6782.9 kPa | 1008.1 kg/m3 and 1008 kg/m3
6783.1 kPa | 1007.9 kg/m3 and 1008.1 kg/m3 and 1008 kg/m3
6783.2 kPa | 1008 kg/m3
6783.3 kPa | 1008.1 kg/m3 and 1008 kg/m3
6783.4 kPa | 1008.1 kg/m3 [middle of 4 runs]
6783.6 kPa | 1008 kg/m3 and 1008.1 kg/m3 and 1008.2 kg/m3
6783.8 kPa | 1008.1 kg/m3
6784.1 kPa | 1008 kg/m3
6784.3 kPa | 1008.1 kg/m3
6784.5 kPa | 1008 kg/m3
6784.6 kPa | 1008.1 kg/m3
6784.7 kPa | 1008 kg/m3 and 1008.1 kg/m3
6784.8 kPa | 1008.1 kg/m3
6785 kPa | 1008.1 kg/m3 and 1008.2 kg/m3
6785.1 kPa | 1008.1 kg/m3 and 1008 kg/m3
6785.2 kPa | 1008.2 kg/m3 and 1008.1 kg/m3
6785.3 kPa | 1008.1 kg/m3 and 1008 kg/m3
6785.5 kPa | 1007.9 kg/m3
6785.7 kPa | 1008 kg/m3 and 1008.2 kg/m3 and 1008.1 kg/m3
6785.8 kPa | 1008.1 kg/m3 and 1008 kg/m3 and 1008.2 kg/m3
6786 kPa | 1008.1 kg/m3 and 1008 kg/m3
6786.2 kPa | 1008.1 kg/m3 and 1008.2 kg/m3
6786.3 kPa | 1008.1 kg/m3
6786.4 kPa | 1008.1 kg/m3
6786.5 kPa | 1008 kg/m3 and 1008.2 kg/m3 and 1008.1 kg/m3
6786.7 kPa | 1008 kg/m3 and 1008.1 kg/m3
6786.9 kPa | 1008 kg/m3 and 1008.1 kg/m3
6787 kPa | 1008 kg/m3
6787.2 kPa | 1008.1 kg/m3 and 1008 kg/m3
6787.4 kPa | 1008 kg/m3 and 1008.2 kg/m3 and 1008.1 kg/m3
6787.7 kPa | 1008.1 kg/m3
6787.9 kPa | 1008 kg/m3 and 1008.1 kg/m3
6788.1 kPa | 1008.2 kg/m3 and 1008.1 kg/m3
6788.2 kPa | 1008 kg/m3 and 1008.1 kg/m3
6788.4 kPa | 1008.1 kg/m3
6789.1 kPa | 1008.2 kg/m3
6789.2 kPa | 1008 kg/m3
6789.4 kPa | 1008 kg/m3
6789.5 kPa | 1008 kg/m3 and 1008.2 kg/m3 and 1008.1 kg/m3
6789.6 kPa | 1008.2 kg/m3 and 1008.1 kg/m3 and 1008 kg/m3
6789.7 kPa | 1008.1 kg/m3 and 1008 kg/m3
6789.8 kPa | 1008 kg/m3 and 1008.1 kg/m3 and 1008.2 kg/m3
6789.9 kPa | 1008 kg/m3
6795.1 kPa | 1008.1 kg/m3
6804.6 kPa | 1008.1 kg/m3
6816.7 kPa | 1008 kg/m3
6826.4 kPa | 1008 kg/m3
6835.7 kPa | 1008.2 kg/m3
6845.5 kPa | 1008.1 kg/m3
6856.1 kPa | 1008.3 kg/m3
6867.3 kPa | 1008.1 kg/m3
6879.6 kPa | 1008.1 kg/m3
6889.1 kPa | 1008.1 kg/m3
6899.3 kPa | 1008.1 kg/m3
6909.5 kPa | 1008.1 kg/m3
6921.6 kPa | 1008.2 kg/m3
6931.7 kPa | 1008.2 kg/m3
6941.9 kPa | 1008.1 kg/m3
6954.2 kPa | 1008.3 kg/m3
6964.7 kPa | 1008.2 kg/m3
6975.4 kPa | 1008.1 kg/m3
6988.1 kPa | 1008.1 kg/m3
6998.9 kPa | 1008.2 kg/m3
7009.8 kPa | 1008.1 kg/m3
7020.4 kPa | 1008.2 kg/m3
7033.3 kPa | 1008.2 kg/m3
7043.8 kPa | 1008.3 kg/m3
7054.9 kPa | 1008.2 kg/m3
7065.4 kPa | 1008.3 kg/m3
7078.4 kPa | 1008.2 kg/m3
7089.3 kPa | 1008.3 kg/m3
7100.3 kPa | 1008.3 kg/m3
7113.3 kPa | 1008.3 kg/m3
